# Tested on: Two-spotted spider mite (Tetranychus urticae)
# Assay: Acaricidal action on two-spotted spider mite (kidney bean leaf disk spray)
# Format: in vivo
# Settings: 500 ppm, adult females, 25° C., two days after treatment
# Protocol: Acaricidal Action on Two-Spotted Spider Mite (Tetranychus urticae)
# Leaf disk having a diameter of 2 cm was prepared by leaves of kidney bean, and the leaf disk was placed on the wetted filter paper. Adult hens of two-spotted spider mite were inoculated on the wetted filter paper, and then 50 ml of an agrochemical dispersion, prepared by diluting a formulation containing the benzimidazole compound represented by the general formula (1) of the present invention or salt thereof as an active ingredient to adjust each of the concentrations to 500 ppm, was sprayed on turntable uniformly. After the spraying, it was allowed to stand in a thermostatic chamber at 25° C. Two days after the treatment of an agrochemical dispersion, the dead mites were counted, the corrected mortality rate was calculated according to the formula shown below, and the acaricidal efficacy was evaluated according to the criteria of Test Example 2. This test was conducted in duplicate using 10 adult hens of two-spotted spider per plot. Corrected mortality(%)=(Number of dead mites in a non-treatment plot−Number of dead mites in a treatment plot)/(Number of dead mites in a non-treatment plot)×100 [Expression 4]
row,Compound,"acaricidal efficacy (corrected mortality rate), activity level"
1,CCCCCc1cn(-c2nc3ccccc3n2S(=O)(=O)CC)cn1 [Compound 1-2],D or higher
2,CCCCCCCCc1cn(-c2nc3ccccc3n2S(C)(=O)=O)cn1 [Compound 1-3],D or higher
3,CCS(=O)(=O)n1c(-n2cnc(C(C)(C)C)c2)nc2ccccc21 [Compound 1-5],D or higher
4,CCS(=O)(=O)n1c(-n2cnc(C#CC3CC3)c2)nc2ccccc21 [Compound 1-7],D or higher
5,CCS(=O)(=O)n1c(-n2cnc(CCc3ccc(C(C)(C)C)cc3)c2)nc2ccccc21 [Compound 1-10],D or higher
6,CCS(=O)(=O)n1c(-n2cnc(CCc3ccc(Br)cc3)c2)nc2ccccc21 [Compound 1-14],D or higher
7,CCS(=O)(=O)n1c(-n2cnc(COc3ccc(C(F)(F)F)cc3)c2)nc2ccccc21 [Compound 1-16],D or higher
8,CCS(=O)(=O)n1c(-n2cnc(COc3ccc(OC(F)(F)F)cc3)c2)nc2ccccc21 [Compound 1-17],D or higher
9,CCS(=O)(=O)n1c(-n2cnc(C#Cc3ccccc3)c2)nc2ccccc21 [Compound 1-18],D or higher
10,CCS(=O)(=O)n1c(-n2cnc(I)c2)nc2ccccc21 [Compound 1-20],D or higher
11,CCS(=O)(=O)n1c(-n2cnc(C(F)(F)F)c2)nc2ccccc21 [Compound 1-21],D or higher
12,CCS(=O)(=O)n1c(-n2cnc(C(F)(F)C(F)(F)C(F)(F)C(F)(F)C(F)(F)C(F)(F)F)c2)nc2ccccc21 [Compound 1-28],D or higher
13,CCS(=O)(=O)n1c(-n2cnc(C#N)c2)nc2ccccc21 [Compound 1-31],D or higher
14,CCS(=O)(=O)n1c(-n2cnc(C(=O)OC(C)(C)C)c2)nc2ccccc21 [Compound 1-33],D or higher
15,CCS(=O)(=O)n1c(-n2cnc(C(=O)OC(C)(C)c3ccccc3)c2)nc2ccccc21 [Compound 1-36],D or higher
16,CCCCCCCCc1cnn(-c2nc3ccccc3n2S(=O)(=O)CC)c1 [Compound 2-2],D or higher
17,CCS(=O)(=O)n1c(-n2cc(CCc3ccc(C(F)(F)F)cc3)cn2)nc2ccccc21 [Compound 2-4],D or higher
18,CCS(=O)(=O)n1c(-n2cc(CCc3ccc(F)cc3)c(C(F)(F)F)n2)nc2ccccc21 [Compound 2-5],D or higher
19,CCS(=O)(=O)n1c(-n2cc(CCc3ccc(OC)cc3)c(C(F)(F)F)n2)nc2ccccc21 [Compound 2-6],D or higher
20,CCCCCCC#Cc1cnn(-c2nc3ccccc3n2S(=O)(=O)CC)c1 [Compound 2-7],D or higher

row,Compound,"acaricidal efficacy (corrected mortality rate), activity level"
1,CCS(=O)(=O)n1c(-n2cc(C#Cc3ccc(F)cc3)c(C(F)(F)F)n2)nc2ccccc21 [Compound 2-9],D or higher
2,CCS(=O)(=O)n1c(-n2cc(Br)c(C(F)(F)F)n2)nc2ccccc21 [Compound 2-14],D or higher
3,CCS(=O)(=O)n1c(-n2cc(I)c(C(F)(F)F)n2)nc2ccccc21 [Compound 2-16],D or higher
4,CCS(=O)(=O)n1c(-n2nc(C(F)(F)F)c(Br)c2C)nc2ccccc21 [Compound 2-18],D or higher
5,CCS(=O)(=O)n1c(-n2cc(Cc3ccccc3)c(C(F)(F)F)n2)nc2ccccc21 [Compound 2-22],D or higher
6,CCS(=O)(=O)n1c(-n2cc(C(C)=O)c(C(F)(F)F)n2)nc2ccccc21 [Compound 2-25],D or higher
7,CCS(=O)(=O)n1c(-n2cc(C(=O)N(C)OC)c(C(F)(F)F)n2)nc2ccccc21 [Compound 2-30],D or higher
8,CCS(=O)(=O)n1c(-n2cc(C(=O)SC(C)(C)C)c(C(F)(F)F)n2)nc2ccccc21 [Compound 2-31],D or higher
9,CCOC(=O)c1cn(-c2nc3ccccc3n2S(=O)(=O)CC)nc1C(F)F [Compound 2-33],D or higher
10,CCS(=O)(=O)n1c(-n2cc(I)c(Br)n2)nc2ccccc21 [Compound 2-35],D or higher
11,CCOC(=O)/C=C/c1ccn(-c2nc3ccccc3n2S(=O)(=O)CC)n1 [Compound 2-36],D or higher
12,CCCCOc1nn(-c2nc3ccccc3n2S(=O)(=O)CC)cc1Br [Compound 2-37],D or higher
13,CCOC(=O)c1cn(-c2nc3ccccc3n2S(=O)(=O)CC)nc1OCC(F)(F)C(F)(F)F [Compound 2-41],D or higher
14,CCS(=O)(=O)n1c(-n2cc(Br)c(OC(F)F)n2)nc2ccccc21 [Compound 2-42],D or higher
15,CCS(=O)(=O)n1c(-n2cc(Cl)c(C(=O)OC(C)(C)C)n2)nc2ccccc21 [Compound 2-44],D or higher
16,CCS(=O)(=O)n1c(-n2cc(Br)c(C(=O)OC(C)(C)C)n2)nc2ccccc21 [Compound 2-45],D or higher
17,CCS(=O)(=O)n1c(-n2cc(C(=O)OC(C)(C)C)c(Cl)n2)nc2ccccc21 [Compound 2-47],D or higher
18,CCS(=O)(=O)n1c(-n2cc(C(=O)OC(C)(C)C)c(Br)n2)nc2ccccc21 [Compound 2-48],D or higher
19,CCS(=O)(=O)n1c(-n2cc(C(=O)OC(C)(C)C)c(C3CC3)n2)nc2ccccc21 [Compound 2-50],D or higher
20,CCS(=O)(=O)n1c(-n2cc(C(=O)OC(C)(C)C)c(OCC(F)(F)C(F)(F)F)n2)nc2ccccc21 [Compound 2-52],D or higher

row,Compound,"acaricidal efficacy (corrected mortality rate), activity level"
1,CCS(=O)(=O)n1c(-n2cc([S+]([O-])C(C)C)c(C(F)(F)F)n2)nc2ccccc21 (centres unmarked) [Compound 2-55],D or higher
2,CCS(=O)(=O)n1c(-n2cc(S(=O)(=O)C(C)C)c(C(F)(F)F)n2)nc2ccccc21 [Compound 2-56],D or higher
3,CCS(=O)(=O)n1c(-n2cc(C(=O)OC(C)(C)C)c(C(C)C)n2)nc2ccccc21 [Compound 2-57],D or higher
4,CCS(=O)(=O)n1c(-n2cc(C(=O)OC(C)(C)C)c(C(C)(C)C)n2)nc2ccccc21 [Compound 2-58],D or higher
5,CCS(=O)(=O)n1c(-n2cc(C(=O)c3ccccc3)c(C(F)(F)F)n2)nc2ccccc21 [Compound 2-59],D or higher
6,CCS(=O)(=O)n1c(-n2cc(CCC(=O)OC(C)(C)C)c(C(F)(F)F)n2)nc2ccccc21 [Compound 2-61],D or higher
7,CCS(=O)(=O)n1c(-n2cc(C(=O)OC(C)(C)C)c(C(=O)OC(C)(C)C)n2)nc2ccccc21 [Compound 2-62],D or higher
8,CCCc1nn(-c2nc3ccccc3n2S(=O)(=O)CC)cc1C(=O)OC(C)(C)C [Compound 2-72],D or higher
9,CCOc1nn(-c2nc3ccccc3n2S(=O)(=O)CC)cc1C(=O)OC(C)(C)C [Compound 2-73],D or higher
10,CCCOc1nn(-c2nc3ccccc3n2S(=O)(=O)CC)cc1C(=O)OC(C)(C)C [Compound 2-74],D or higher
11,CCS(=O)(=O)n1c(-n2cc(C(=O)OC(C)(C)C)c(OCC(F)(F)F)n2)nc2ccccc21 [Compound 2-76],D or higher
12,CCS(=O)(=O)n1c(-n2cc(C(=O)OC(C)(C)C)c(OCC(F)F)n2)nc2ccccc21 [Compound 2-77],D or higher
13,CCS(=O)(=O)n1c(-n2cc(C(=O)OC(C)(C)C)c(OCC(F)(F)C(F)F)n2)nc2ccccc21 [Compound 2-78],D or higher
14,CCS(=O)(=O)n1c(-n2cc(C(=O)OC)c(C(C)(C)C)n2)nc2ccccc21 [Compound 2-79],D or higher
15,CCOC(=O)c1cn(-c2nc3ccccc3n2S(=O)(=O)CC)nc1/C=C/C1CC1 [Compound 2-80],D or higher
16,CCOC(=O)c1cn(-c2nc3ccccc3n2S(=O)(=O)CC)nc1I [Compound 2-81],D or higher
17,CCS(=O)(=O)n1c(-n2cc(C(=O)OC(C)(C)C)c(I)n2)nc2ccccc21 [Compound 2-82],D or higher
18,CCS(=O)(=O)n1c(-n2cc(C(=O)OC(C)(C)C)c(/C=C/C3CC3)n2)nc2ccccc21 [Compound 2-83],D or higher
19,CCS(=O)(=O)n1c(-n2cc(C(=O)OC(C)(C)C)c(CCC3CC3)n2)nc2ccccc21 [Compound 2-84],D or higher

# — patent US12389911B2, “Benzimidazole compound or salt thereof, agricultural and horticultural insecticidal and acaricidal agent containing said compound, and method for using same” (NIHON NOHYAKU CO., LTD., priority 2019, dated 2025)
